Assay results taken from US12454559B2, “Activating mitotic checkpoint control mechanisms” (The Regents of the University of Michigan, priority 2015, dated 2025).

Assays:
yeast cells = test: Yeast cell-cycle progression (large-budded / metaphase-arrested cells) after rapamycin-induced anchoring; format: cell-based, budding yeast
Method: Stock solution (1 mg ml^−1) of rapamycin in DMSO was diluted ×1,000 to achieve 1 μg ml^−1 final concentration in all experiments involving rapamycin-induced dimerization.
(§1) The ATP analogues 1-NMPP1 and 1-NAPP1 (final concentration 50 μM) were used to block the activity of mps1-as1 and ipl1-as6, respectively. Cells were first synchronized in S-phase using 100 mM hydroxyl urea (HU) for 2.5 h, washed with YPD, and then released into media containing the appropriate inhibitor for 15 min. This was followed by the addition of rapamycin to the media to anchor Mps1-Frb at Mtw1-C. The bud size was used to monitor cell-cycle progress.
Anaphase cells in cycling cultures will also be scored as large-budded cells by this criterion. In strains carrying fluorescent markers, the separation of the kinetochore clusters or spindle pole bodies was used to determine whether or not the cells arrested in mitosis. Large-budded cells with kinetochore-cluster separation smaller than 1 μm or spindle length smaller than 2 μm were scored as metaphase-arrested cells (ref. 68; herein incorporated by reference in its entirety).

ipl1-as6 = test: Spindle localization of Sli15-GFP in pre-anaphase cells expressing ipl1-as6; format: cell-based, budding yeast; conditions: 50 μM
Method: as §1
To study the effect of 1-NAPP1 on ipl1-as6 activity, the spindle localization of Sli15-GFP was measured in pre-anaphase cells67. The bud size was used to find pre-anaphase cells. If the bud was smaller than 50% in size as compared with the mother cell, and contained a short bar of Sli15-GFP located within the mother cell and at the bud neck, then the cell was deemed to be in pre-anaphase.

HeLa cells = test: Duration of mitosis / mitotic arrest by time-lapse imaging of HeLa cells expressing rapamycin-dimerizable Mps1 and KNL1 phosphodomain (eSAC); format: cell-based, human
Excerpt: As described elsewhere herein, a kinetochore-independent SAC activator was engineered which comprises a region of KNL1 that contains a series of Mps1 phosphorylation sites, known as “MELT repeats”, which are necessary for SAC activation, but lacks the kinetochore-localization domain at the C-terminus or the newly identified transient localization domain at its N-terminus (FIG. 21). FKBP12 was fused to this minimal KNL1 phosphodomain and FRB to Mps1, and rapamycin was used to induce dimerization of the fusion proteins in HeLa cells (FIGS. 17B, 22). […] These cells maintained an aligned metaphase plate indicating an inability to initiate anaphase and that the observed mitotic arrest was not due to the disruption of kinetochore-microtubule interactions. […] To further ensure kinetochore-independent operation of the dimerized proteins, the kinetochore-localization domain of Mps1 was removed (FIG. 17E). […] Furthermore, individually inhibiting the kinase activity of exogenous Mps1 using an analog-sensitive version of the kinase domain or preventing the phosphorylation of the minimal KNL1 phosphodomain by using a non-phosphorylatable version of the phosphodomain each prevented the rapamycin-induced mitotic arrest (FIG. 23). Thus, the catalytic activity of the Mps1 kinase domain and the Mps1 phosphorylation sites within the minimal phosphodomain are both essential for the rapamycin-induced metaphase arrest. […] The above described system of FKBP12/FRB-dimerizable Mps1 kinase domain and KNL1 phosophodomains is referred to in this example as an ectopic SAC activation system (eSAC).
MELT repeats in the eSAC phosphodomain were phosphorylated only in the presence of rapamycin, and were not phosphorylated if the SAC was activated by creating unattached kinetochores by treatment with the microtubule depolymerizing drug nocodazole (FIG. 18A). Reciprocally, the MELT repeats in endogenous KNL1 were not appreciably phosphorylated in rapamycin-treated cells, but were strongly phosphorylated in nocodazole-treated cells. […]

## CC(C)(C)n1nc(-c2cccc3ccccc23)c2c(N)ncnc21 [1-NAPP1]
Yeast cells; S-phase synchronized ipl1-as6 cells released into 1-NAPP1 and rapamycin
  Effect on SAC activation induced by Mps1 anchored at Mtw1-C: did not have any effect on SAC activation
ipl1-as6
  Inhibition of ipl1-as6 (Sli15-GFP spindle localization): inhibits ipl1-as6

## CC(C)(C)n1nc(Cc2cccc3ccccc23)c2c(N)ncnc21 [1NM-PP1]
HeLa cells; 10 μM with Rapamycin, analog-sensitive Mps1S602A kinase domain with minimal phosphodomain
  Effect on eSAC-induced arrest: abrogated the eSAC-induced arrest
Yeast cells; heterozygous diploids expressing mps1-as1 and Mps1-Frb, 1-NMPP1 15 min, then rapamycin
  Effect on SAC activation by Mps1-Frb anchored at the kinetochore: does not affect SAC activation

## c1nc2nc(Nc3ccc(N4CCOCC4)cc3)nc(NC3CCCCC3)c2[nH]1 [Reversine]
HeLa cells; HeLa cells in rapamycin-induced arrest, KNL1 phosphodomain-Mps1 dimerization
  Effect on rapamycin-induced mitotic arrest (time until anaphase entry): reversed rapidly
HeLa cells; HeLa cells, Reversine-treated vs untreated, no rapamycin
  Effect on SAC and cell division (duration of mitosis): inactivates the SAC and significantly accelerates cell division

B1: Spc105120: 329: minimal, anchorable phosphodomain comprising residues 120-329 of Spc105, contains all 6 MELT motifs (protein)
chain: LVTSTQIDDARTEEKTAAEEDPDTSGMELTEPIVATSDSNKASQHDPTSMEMTEVFPRSIRQKNPDVEGESIESSQQIDDVEAVREETMELTAIHNVHDYDSISEDTVEGEPIDLTEYESKPYVPNSVSRSTGKSSDYSVERSNDKSDLSKSENKTNSSQPMEITDIFHADPQNPMGLHSDNNINDDGNEMELTQIQTNFDRDNHHIDES
modifications: left off: small tags and cut ends
notes: minimal, anchorable phosphodomain comprising residues 120-329 of Spc105, contains all 6 MELT motifs
Yeast cells; anchored to Mps1-Fkbp12 with rapamycin, asynchronously dividing cells
  Cell-cycle arrest / SAC activation when anchored to Mps1: arrested in metaphase
